Measurements as given in PubChem BioAssay (NCI).
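Step 1: Grow cells in 96-well plates. Step 2: Expose to compound for 48 hours at 5 concentrations. Step 3: Interpolate endpoints linearly; if unreached, use highest concentration. The concentration for full growth arrest is given as TGI.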

Assays:
Assay in all cases: NCI anticancer screen, dose series, 48 h
A549 NSCLC = system: A549 NSCLC
SK-MEL-28 melanoma = system: SK-MEL-28 melanoma
DLD-1 colon = system: DLD-1 colon
RPMI-8226 leukemia = system: RPMI-8226 leukemia
KM12 colon = system: KM12 colon
SF-268 CNS = system: SF-268 CNS
HOP-92 NSCLC = system: HOP-92 NSCLC
786-0 renal = system: 786-0 renal
OVCAR-3 ovarian = system: OVCAR-3 ovarian
CCRF-CEM leukemia = system: CCRF-CEM leukemia
M19-MEL melanoma = system: M19-MEL melanoma
LOX IMVI melanoma = system: LOX IMVI melanoma
HL-60(TB) leukemia = system: HL-60(TB) leukemia
OVCAR-8 ovarian = system: OVCAR-8 ovarian
SN12C renal = system: SN12C renal
DMS 114 small cell lung = system: DMS 114 small cell lung
HCC-2998 colon = system: HCC-2998 colon
HOP-18 NSCLC = system: HOP-18 NSCLC
UO-31 renal = system: UO-31 renal
TK-10 renal = system: TK-10 renal
KM20L2 colon = system: KM20L2 colon
SK-MEL-2 melanoma = system: SK-MEL-2 melanoma
HCT-116 colon = system: HCT-116 colon
RXF 393 renal = system: RXF 393 renal
U251 CNS = system: U251 CNS
SK-OV-3 ovarian = system: SK-OV-3 ovarian
A498 renal = system: A498 renal
NCI-H460 lung = system: NCI-H460 lung
IGROV1 ovarian = system: IGROV1 ovarian
SNB-75 CNS = system: SNB-75 CNS
SK-MEL-5 melanoma = system: SK-MEL-5 melanoma
NCI-H522 lung = system: NCI-H522 lung
MALME-3M melanoma = system: MALME-3M melanoma
EKVX NSCLC = system: EKVX NSCLC
XF 498 CNS = system: XF 498 CNS
M14 melanoma = system: M14 melanoma
K-562 leukemia = system: K-562 leukemia
SNB-19 CNS = system: SNB-19 CNS
DMS 273 small cell lung = system: DMS 273 small cell lung
SNB-78 CNS = system: SNB-78 CNS
LXFL 529 NSCLC = system: LXFL 529 NSCLC
RXF-631 renal = system: RXF-631 renal
CAKI-1 renal = system: CAKI-1 renal
MOLT-4 leukemia = system: MOLT-4 leukemia
SF-295 CNS = system: SF-295 CNS
COLO 205 colon = system: COLO 205 colon
HCT-15 colon = system: HCT-15 colon
NCI-H23 lung = system: NCI-H23 lung
ACHN renal = system: ACHN renal
UACC-257 melanoma = system: UACC-257 melanoma
OVCAR-5 ovarian = system: OVCAR-5 ovarian
HOP-62 NSCLC = system: HOP-62 NSCLC
SW-620 colon = system: SW-620 colon
UACC-62 melanoma = system: UACC-62 melanoma
HT29 colon = system: HT29 colon
SF-539 CNS = system: SF-539 CNS
OVCAR-4 ovarian = system: OVCAR-4 ovarian
NCI-H226 lung = system: NCI-H226 lung
SR leukemia = system: SR leukemia

## Cc1ccc(C2CC(c3cccc([N+](=O)[O-])c3)=Nc3ccccc3S2)cc1 (configuration not stated)
A549 NSCLC
  TGI: > 100 µM
SK-MEL-28 melanoma
  TGI: > 100 µM
DLD-1 colon
  TGI: > 65 µM
RPMI-8226 leukemia
  TGI: 41.7 µM
KM12 colon
  TGI: 46.1 µM
SF-268 CNS
  TGI: 99.1 µM
HOP-92 NSCLC
  TGI: 52.2 µM
786-0 renal
  TGI: 51.9 µM
OVCAR-3 ovarian
  TGI: > 74.7 µM
CCRF-CEM leukemia
  TGI: > 81.8 µM
M19-MEL melanoma
  TGI: > 100 µM
LOX IMVI melanoma
  TGI: 51.9 µM
HL-60(TB) leukemia
  TGI: 47.5 µM
OVCAR-8 ovarian
  TGI: > 71.4 µM
SN12C renal
  TGI: > 90.4 µM
DMS 114 small cell lung
  TGI: 57.2 µM
HCC-2998 colon
  TGI: > 100 µM
HOP-18 NSCLC
  TGI: > 100 µM
UO-31 renal
  TGI: > 83.6 µM
TK-10 renal
  TGI: > 100 µM
KM20L2 colon
  TGI: > 100 µM
SK-MEL-2 melanoma
  TGI: > 100 µM
HCT-116 colon
  TGI: 27.1 µM
RXF 393 renal
  TGI: > 89.3 µM
U251 CNS
  TGI: > 79.5 µM
SK-OV-3 ovarian
  TGI: > 100 µM
A498 renal
  TGI: > 100 µM
NCI-H460 lung
  TGI: > 100 µM
IGROV1 ovarian
  TGI: > 100 µM
SNB-75 CNS
  TGI: > 96.1 µM
SK-MEL-5 melanoma
  TGI: > 72.2 µM
NCI-H522 lung
  TGI: 64.6 µM
MALME-3M melanoma
  TGI: > 100 µM
EKVX NSCLC
  TGI: > 100 µM
XF 498 CNS
  TGI: > 100 µM
M14 melanoma
  TGI: > 100 µM
K-562 leukemia
  TGI: 77.2 µM
SNB-19 CNS
  TGI: > 100 µM
DMS 273 small cell lung
  TGI: > 100 µM
SNB-78 CNS
  TGI: > 31.6 µM
LXFL 529 NSCLC
  TGI: > 100 µM
RXF-631 renal
  TGI: > 100 µM
CAKI-1 renal
  TGI: > 100 µM
MOLT-4 leukemia
  TGI: > 81.8 µM
SF-295 CNS
  TGI: > 100 µM
COLO 205 colon
  TGI: > 100 µM
HCT-15 colon
  TGI: > 100 µM
NCI-H23 lung
  TGI: > 76.4 µM
ACHN renal
  TGI: > 100 µM
UACC-257 melanoma
  TGI: > 100 µM
OVCAR-5 ovarian
  TGI: > 100 µM
HOP-62 NSCLC
  TGI: > 100 µM
SW-620 colon
  TGI: 46.2 µM
UACC-62 melanoma
  TGI: > 100 µM
HT29 colon
  TGI: 98.1 µM
SF-539 CNS
  TGI: > 96.3 µM
OVCAR-4 ovarian
  TGI: > 100 µM
NCI-H226 lung
  TGI: > 100 µM
SR leukemia
  TGI: > 100 µM

## Cc1csc2nc(-c3ccncc3)cn12
A549 NSCLC
  TGI: > 100 µM
SK-MEL-28 melanoma
  TGI: > 100 µM
DLD-1 colon
  TGI: > 100 µM
RPMI-8226 leukemia
  TGI: > 64.1 µM
KM12 colon
  TGI: > 100 µM
SF-268 CNS
  TGI: > 100 µM
HOP-92 NSCLC
  TGI: > 100 µM
786-0 renal
  TGI: 34.5 µM
OVCAR-3 ovarian
  TGI: > 100 µM
CCRF-CEM leukemia
  TGI: > 61 µM
M19-MEL melanoma
  TGI: > 100 µM
LOX IMVI melanoma
  TGI: > 61.5 µM
HL-60(TB) leukemia
  TGI: > 52.4 µM
OVCAR-8 ovarian
  TGI: > 100 µM
SN12C renal
  TGI: > 100 µM
DMS 114 small cell lung
  TGI: > 60.9 µM
HCC-2998 colon
  TGI: > 100 µM
HOP-18 NSCLC
  TGI: > 100 µM
UO-31 renal
  TGI: > 100 µM
TK-10 renal
  TGI: > 100 µM
KM20L2 colon
  TGI: > 100 µM
SK-MEL-2 melanoma
  TGI: > 100 µM
HCT-116 colon
  TGI: > 59.3 µM
U251 CNS
  TGI: > 72.6 µM
SK-OV-3 ovarian
  TGI: > 100 µM
A498 renal
  TGI: > 100 µM
NCI-H460 lung
  TGI: > 61.4 µM
IGROV1 ovarian
  TGI: > 100 µM
SNB-75 CNS
  TGI: > 100 µM
SK-MEL-5 melanoma
  TGI: > 100 µM
NCI-H522 lung
  TGI: > 100 µM
MALME-3M melanoma
  TGI: > 100 µM
EKVX NSCLC
  TGI: > 100 µM
XF 498 CNS
  TGI: > 100 µM
M14 melanoma
  TGI: > 100 µM
K-562 leukemia
  TGI: > 65.4 µM
SNB-19 CNS
  TGI: > 100 µM
DMS 273 small cell lung
  TGI: 41 µM
SNB-78 CNS
  TGI: > 100 µM
LXFL 529 NSCLC
  TGI: > 76.5 µM
RXF-631 renal
  TGI: > 100 µM
CAKI-1 renal
  TGI: > 100 µM
MOLT-4 leukemia
  TGI: > 100 µM
SF-295 CNS
  TGI: > 100 µM
COLO 205 colon
  TGI: > 79.7 µM
HCT-15 colon
  TGI: > 56.7 µM
NCI-H23 lung
  TGI: > 100 µM
ACHN renal
  TGI: > 100 µM
UACC-257 melanoma
  TGI: > 100 µM
OVCAR-5 ovarian
  TGI: > 100 µM
HOP-62 NSCLC
  TGI: > 100 µM
SW-620 colon
  TGI: > 54.2 µM
UACC-62 melanoma
  TGI: > 100 µM
HT29 colon
  TGI: > 100 µM
SF-539 CNS
  TGI: > 65.9 µM
OVCAR-4 ovarian
  TGI: > 100 µM
NCI-H226 lung
  TGI: > 100 µM
SR leukemia
  TGI: 51 µM
